Laboratory results: US20150313862A1, “"Pharmaceutical composition for reducing the trimethylamine N-oxide level"” (Latvian Institute of Organic Synthesis, priority 2012, published 2015)
Marks after values point to notes of the source that are not given here.

Experiments:
TMANO [1] = assay: TMANO concentration in blood plasma of healthy volunteers on a TMANO source rich diet (UPLC-MS/MS); assay type: in vivo, human; settings: for TMANO concentration in study participant's blood plasma: healthy volunteers (n=8), after 7 days TMANO source rich diet (150 g fish/day) with oral Meldonium 500 mg twice a day, mean ± SEM, diet alone 81.5 ± 8.6, baseline 4.9 ± 1.3, dihydrate
Protocol: (§1) Eight healthy volunteers were involved in the study, 4 women and 4 men. The study was conducted in accordance with the Declaration of Helsinki, and with bioethical norms approved by the Central Committee of Medical Ethics. All study participants have signed informed consent forms. Exclusion criteria for participation in the study were: the use of dietary supplements, smoking, pregnancy and alcohol addiction. At the study beginning information about the participant's age, medication use, height and weight was recorded.
(§2) Then, a venous blood sample and evening and morning urine samples were collected from the study participants. At the first stage of experiment, all participants received 150 grams of fish for lunch, once a day, during 7 days, which served as a source of TMANO increased formation in the body (W. J. Dyer. Amines in Fish Muscle. VI. Trimethylamine Oxide Content of Fish and Marine Invertebrates, Journal of the Fisheries Research Board of Canada, 8c(5): 314-324, 10.1139/f50-020, 1952).
During the next stage of experiment, to determine the effect of Meldonium on TMANO concentration in blood plasma and urine, in addition to trimethylamine-rich food source, a pharmaceutical composition containing 500 mg of Meldonium was administered to each study participant during 7 days, twice a day (morning and evening). […]
(§3) TMANO concentration in plasma and urine samples was determined by ultrahigh performance liquid chromatography-tandem mass spectrometry method. […] TMANO detection and quantification was performed using Quattro Micro™ spectrometer (Micromass) in an ion reaction monitoring (TMANO ion transition m/z75.8>m/z58.3, IS ion transition m/z175.4>m/z86.0) positive electrospraying mode (cone voltage 26V, collision energy 14 eV, collision gas—argon). […]
TMANO concentration in the sample was calculated using the linear relationship TMANO peak area/IS peak area—TMANO concentration using the data processing software QuanLynx V4.1 (Waters). […]

TMANO [2] = assay: Total amount of TMANO excreted with urine during 7 days, healthy volunteers on a TMANO source rich diet (UPLC-MS/MS, creatinine by Jaffe method); assay type: in vivo, human; settings: for Total excreted with urine TMANO amount during 7 days: healthy volunteers (n=8), 7 days TMANO source rich diet with oral Meldonium 1 g/day, area under the curve, mean ± SEM, diet alone 18.2 ± 2.2, baseline 2.8 ± 0.6, dihydrate
Protocol: as §1
as §2, with “1952). […]” for “1952).”
as §3
TMANO concentration in the sample was calculated using the linear relationship TMANO peak area/IS peak area—TMANO concentration using the data processing software QuanLynx V4.1 (Waters).
Creatinine concentration was calculated by slightly modified Jaffe method (Jaffe M. Ueber die Niederschlag, welchen Pikrinsaure in normalem Ham erzeugt and uber eine neue Reaction des Kreatinins. Z physiol Chem 1886; 10: 391-400). […] After 10 min of incubation at room temperature the absorbance was measured at 492 nm with a μQuant™ multiwell plate […] spectrophotometer (Biotek Instruments, USA). […]

[3] = cited from earlier work

Question: What does the source list for `C[N+](C)(C)NCCC(=O)[O-]` [Meldonium, 3-(2,2,2-trimethyhydrazinium)propionate dihydrate]?
Answer: Reduction of TMANO plasma concentration (TMANO [1]; 7 days oral Meldonium 500 mg twice a day with TMANO-rich food, compared with TMANO level before Meldonium use, statistically significant): 47%; TMANO concentration in study participant's blood plasma (TMANO [1]): 43.0 ± 3.8 nmol/mL; TMANO concentration in study participant's blood plasma (TMANO [1]; listed as TMANO + Meldonium): 43.0 ± 3.8*^,# nmol/ml; Increase of urine excreted TMANO amount (TMANO [2]; 7 days oral Meldonium 500 mg twice a day with TMANO-rich food, versus before Meldonium use, statistically significant): about 25%; Total excreted with urine TMANO amount during 7 days (TMANO [2]): 24.3±1.5 μmol/mg creatinine *7 d; Total excreted with urine TMANO amount during 7 days (TMANO [2]; listed as TMANO + Meldonium): 24.3 ± 1.5*^,# μmol/mg creatinine *7 d; Solubility in water [3]: easily soluble in water
